By Ki is commonly meant the dissociation constant of the complex between target and ligand, obtained from inhibition or displacement. Low readings indicate a stronger hold on the target, high ones a looser hold on the target.

This test has as its target T1, human CB2 receptors (Homo sapiens, UniProt P34972).
T1 construct: expressed in transfected cells
Description: Affinity for the human CB2 cannabinoid receptors: inhibition of [3H]-CP55940 binding to transfected CHO-K1 cell membranes. The following applies: [3H]-CP55940 (1 nM), CHO-K1 membranes expressing human CB2; Cheng-Prusoff corrected; x = Ki below 50 nM. The method, then:
The affinity of the compounds of the present invention for the different sub-types of cannabinoid receptors was measured according to procedures analogous to those described hereafter for the human CB2 receptor.
Study of the Affinity of the Compounds for the Human CB2 Cannabinoid Receptors
The affinity of the compounds of the invention for the human CB2 receptors is determined by measuring the inhibition of the binding of [^3H]-CP55940 to transfected CHO-K1 cell membrane preparations.
The CHO-K1 cells expressing the human CB2 receptors in a stable fashion are cultured in an RPMI 1640 medium containing 10% foetal calf serum, 2 mM of glutamine, 100 U/ml of penicillin, 0.1 mg/ml of streptomycin and 0.5 mg/ml of G418. The cells are collected with 0.5 mM of EDTA and centrifuged at 500 g for 5 minutes at 4° C. The pellet is re-suspended in phosphate buffered saline medium (PBS) and centrifuged at 500 g for 5 minutes at 4° C. The pellet is re-suspended in a Tris 50 mM buffer medium at pH 7.4 and centrifuged at 500 g for 5 minutes at 4° C. The cells are lysed by sonication and centrifuged at 39,000 g for 10 minutes at 4° C. The pellet is re-suspended in the Tris 50 mM buffer medium at pH 7.4 and centrifuged at 50,000 g for 10 minutes at 4° C. The membranes obtained in this last pellet are stored at −80° C.
Measurement of the competitive inhibition of the binding of the [^3H]-CP55940 to the CB2 receptors is carried out in duplicate using 96-well polypropylene plates. The cell membranes (10 μg of proteins/well) are incubated with the [^3H]-CP55940 (1 nM) for 60 minutes at 25° C. in a Tris-HCl 50 mM buffer medium, pH 7.4, comprising 0.1% bovine serum albumin (BSA), 5 mM of MgCl2, and 50 μg/ml of bacitracin.
The bound [^3H]-CP55940 is separated from the free [^3H]-CP55940 by filtration through GF/C glass fibre filter plates (Unifilter, Packard) pre-impregnated with 0.1% polyethylenimine (P.E.I.), using a Filtermate 196 (Packard). The filters are washed with Tris-HCl 50 mM buffer, pH 7.4 at 0-4° C. and the radioactivity present is determined using a counter (Packard Top Count).
The specific binding is obtained by subtracting the non-specific binding (determined in the presence of 0.1 μM of WIN55212-2 from the total binding). The data are analyzed by computer-assisted non-linear regression (MDL). For each test, a Cheng-Prusoff correction is made in order to convert the IC50 to the inhibition constant, Ki.
where [L] is the concentration of the radioligand used in the test and Kd is the radioligand equilibrium dissociation constant.

Bounds are passed on as bounds.

T1 sequence (P34972 whole entry): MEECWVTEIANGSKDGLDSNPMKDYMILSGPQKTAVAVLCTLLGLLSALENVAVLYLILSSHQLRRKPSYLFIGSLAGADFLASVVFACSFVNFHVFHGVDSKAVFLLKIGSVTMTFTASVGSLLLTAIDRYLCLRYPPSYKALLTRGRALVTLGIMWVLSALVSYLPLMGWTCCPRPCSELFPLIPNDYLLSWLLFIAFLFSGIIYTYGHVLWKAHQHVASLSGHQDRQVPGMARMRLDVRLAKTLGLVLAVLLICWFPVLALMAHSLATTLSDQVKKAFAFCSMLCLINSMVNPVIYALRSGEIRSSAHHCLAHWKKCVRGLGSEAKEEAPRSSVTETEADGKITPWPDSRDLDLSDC

Compound `CN1CCN(c2ccc(CN3C(=O)CC(C)(C)n4c3nc3ccccc3c4=O)cc2)CC1` [Example 35] registered an inhibition constant (Ki) of under 50 nM.

Compound `CN1CCN(c2ccc(CN3C(=O)C(Cc4ccccc4)n4c3nc3ccccc3c4=O)cc2)CC1` (stereo not shown) [Example 12] showed a Ki of under 50 nM.

The compound `CC(C)CC1CC(=O)N(Cc2ccc(N3CCN(C)CC3)cc2)c2nc3ccccc3c(=O)n21` (stereo not shown) [Example 43] gave a Ki of under 50 nM.

Turning to `CN1CCN(c2ccc(CN3C(=O)C(C4CCCCC4)n4c3nc3ccccc3c4=O)cc2)CC1` (stereo not shown) [Example 5], the Ki was under 50 nM.

Compound `CN1CCN(c2ccc(CN3C(=O)CC(C4CCCCC4)n4c3nc3ccccc3c4=O)cc2)CC1` (stereo not shown) [Example 45] returned a Ki of under 50 nM.

In turn, `CN1CCN(c2ccc(CN3C(=O)CC(c4ccccc4)n4c3nc3ccccc3c4=O)cc2)CC1` (stereo not shown) [Example 44] displayed an inhibition constant Ki of under 50 nM.

Take `CC(C)C[C@H]1CC(=O)N(Cc2ccc(N3CCN(C)CC3)cc2)c2nc3ccccc3c(=O)n21` [Example 38]: the Ki was under 50 nM.

For the compound `CN1CCN(c2ccc(CN3C(=O)C(c4ccc(-c5ccccc5)cc4)n4c3nc3ccccc3c4=O)cc2)CC1` (stereo not shown) [Example 2], the Ki is under 50 nM.

`CN1CCN(c2ccc(CN3C(=O)C(CC4CCCCC4)n4c3nc3ccccc3c4=O)cc2)CC1` (stereo not shown) [Example 1]: the Ki was under 50 nM.

`CN1CCN(c2ccc(CN3C(=O)C(c4ccc5ccccc5c4)n4c3nc3ccccc3c4=O)cc2)CC1` (stereo not shown) [Example 8] returned a Ki of under 50 nM.

In the case of `CN1CCN(c2ccc(CN3C(=O)CC(CCc4ccccc4)n4c3nc3ccccc3c4=O)cc2)CC1` (stereo not shown) [Example 48], the Ki is under 50 nM.

`CN1CCN(c2ccc(CN3C(=O)C(C)(C)Cn4c3nc3ccccc3c4=O)cc2)CC1` [Example 37] yielded a Ki of under 50 nM.

For `CCCCC1(CCCC)C(=O)N(Cc2ccc(N3CCN(C)CC3)cc2)c2nc3ccccc3c(=O)n21` [Example 31], the inhibition constant Ki is under 50 nM.

On to `CN1CCN(c2ccc(CN3C(=O)C(CCC4CCCCC4)n4c3nc3ccccc3c4=O)cc2)CC1` (stereo not shown) [Example 4], for which the Ki is under 50 nM.

The compound `CN1CCN(c2ccc(CN3C(=O)CC(Cc4ccccc4)n4c3nc3ccccc3c4=O)cc2)CC1` (stereo not shown) [Example 46] returned an inhibition constant Ki of under 50 nM.

Consider `CN1CCN(c2ccc(CN3C(=O)C4(Cc5ccccc5C4)n4c3nc3ccccc3c4=O)cc2)CC1` [Example 17], for which the Ki is under 50 nM.

These data come from US20100144714A1, “DERIVATIVES OF IMIDAZO PYRIMIDO AND DIAZEPINE PYRIMIDINE-DIONE, AND USE THEREOF AS A DRUG” (SOCIETE DE CONSEILS DE RECHERCHES ET D'APPLICATIONS …, priority 2006, published 2010).
